Measured values reported in patent publication US8569267B2, “Tetracyclic tetrahydrofuran derivatives containing cyclic amine side chain” (Janssen Pharmaceutica, NV, priority 2005, dated 2013).

Assays:
[1] = target: T1, human cloned 5-HT2A receptor, expressed in L929 cells (Homo sapiens, UniProt P28223); assay: In vitro binding affinity for 5-HT2A receptor ([125I]R91150 radioligand binding); details: human cloned 5-HT2A receptor in L929 cells, [125I]R91150; read-out: 5-HT2A pIC50 (converted)
T1 construct: expressed in transfected cells; host or cells: L929 cells
Protocol: In Vitro Binding Affinity for 5-HT2A and 5-HT2C Receptors
The interaction of the compounds of Formula (I) with 5-HT2A and 5-HT2C receptors was assessed in in vitro radioligand binding experiments. […] During the incubation, the radioligands bind to the receptor. When equilibrium of binding is reached, the receptor bound radioactivity is separated from the non-bound radioactivity, and the receptor bound activity is counted. The interaction of the test compounds with the receptors is assessed in competition binding experiments. Various concentrations of the test compound are added to the incubation mixture containing the tissue preparation and the radioligand. Binding of the radioligand will be inhibited by the test compound in proportion to its binding affinity and its concentration. The affinities of the compounds for the 5-HT2 receptors were measured by means of radioligand binding studies conducted with: (a) human cloned 5-HT2A receptor, expressed in L929 cells using [^125I]R91150 as radioligand and (b) human cloned 5-HT2C receptor, expressed in CHO cells using [^3H]mesulergine as radioligand.

[2] = target: T2, human cloned 5-HT2C receptor, expressed in CHO cells (Homo sapiens, UniProt P28335); assay: In vitro binding affinity for 5-HT2C receptor ([3H]mesulergine radioligand binding); details: human cloned 5-HT2C receptor, read-out: 5-HT2C pIC50 (converted)
T2 construct: expressed in transfected cells; host or cells: CHO cells
T2 sequence (P28335 33-458): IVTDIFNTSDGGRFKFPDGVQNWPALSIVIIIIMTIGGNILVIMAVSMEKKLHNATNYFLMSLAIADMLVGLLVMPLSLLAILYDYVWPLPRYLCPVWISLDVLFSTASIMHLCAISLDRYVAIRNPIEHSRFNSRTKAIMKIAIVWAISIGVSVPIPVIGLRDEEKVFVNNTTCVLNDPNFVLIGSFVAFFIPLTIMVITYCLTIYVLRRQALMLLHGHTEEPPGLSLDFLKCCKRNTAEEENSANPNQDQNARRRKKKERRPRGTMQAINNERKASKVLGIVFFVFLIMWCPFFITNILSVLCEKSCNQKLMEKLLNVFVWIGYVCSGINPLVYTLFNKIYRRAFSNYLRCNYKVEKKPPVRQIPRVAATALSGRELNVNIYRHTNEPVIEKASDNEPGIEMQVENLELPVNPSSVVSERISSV
Outline: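 Receptor-bound radioligand counted after separation from unbound label once equilibrium is reached. Test compound added across a concentration range to tissue preparation plus radioligand; inhibition of binding reflects affinity and concentration.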

[3] = target: T3, human Dopamine D2L receptor (Homo sapiens, UniProt P14416); assay: In vitro binding affinity for human D2L receptor ([3H]Spiperone binding); details: human D2L receptor-transfected CHO cell membranes, read-out: D2L pIC50 (converted)
T3 construct: expressed in transfected cells; host or cells: CHO cells
Outline: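 Competition curves were expressed as percent specific binding, measured by scintillation counting after filtration onto GF/B filters and ice-cold Tris washes. Test compounds competed with [3H]Spiperone, added from a 2 nmol/L dilution, for 30 min at 37° C on transfected CHO membranes in pH 7.7 Tris-HCl salt buffer. Butaclamol at 10^−6 mol/l final marked non-specific binding.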

[4] = target: T4, NET (norepinephrine transporter) (Rattus norvegicus, UniProt Q63380); assay: In vitro determination of NET reuptake inhibition ([3H]Nixosetine binding, rat brain cortex); details: rat brain cortex, read-out: NET pIC50 (converted)
T4 construct: Cortex from rat brain was collected and homogenised; from tissue; host or cells: rat brain cortex
Outline: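 Competition curves and percentage specific binding came from scintillation counting of filter-trapped radioactivity. The membranes were rat cortical homogenate in pH 7.4 Tris buffer with 120 mM NaCl and 5 mM KCl. Test compounds competed with [3H]nisoxetine for binding.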

T3 sequence (P14416 whole entry): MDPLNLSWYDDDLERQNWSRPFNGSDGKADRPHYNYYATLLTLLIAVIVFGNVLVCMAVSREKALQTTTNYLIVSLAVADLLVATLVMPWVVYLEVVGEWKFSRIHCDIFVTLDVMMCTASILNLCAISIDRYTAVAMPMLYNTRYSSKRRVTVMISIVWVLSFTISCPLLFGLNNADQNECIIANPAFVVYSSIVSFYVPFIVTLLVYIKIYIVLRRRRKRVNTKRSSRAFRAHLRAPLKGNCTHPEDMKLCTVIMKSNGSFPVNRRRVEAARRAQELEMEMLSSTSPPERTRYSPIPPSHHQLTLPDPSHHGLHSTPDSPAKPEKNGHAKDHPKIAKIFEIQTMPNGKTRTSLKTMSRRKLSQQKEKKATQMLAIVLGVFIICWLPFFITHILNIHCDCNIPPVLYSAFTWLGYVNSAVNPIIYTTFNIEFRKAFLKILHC
T4 sequence (Q63380 1-617): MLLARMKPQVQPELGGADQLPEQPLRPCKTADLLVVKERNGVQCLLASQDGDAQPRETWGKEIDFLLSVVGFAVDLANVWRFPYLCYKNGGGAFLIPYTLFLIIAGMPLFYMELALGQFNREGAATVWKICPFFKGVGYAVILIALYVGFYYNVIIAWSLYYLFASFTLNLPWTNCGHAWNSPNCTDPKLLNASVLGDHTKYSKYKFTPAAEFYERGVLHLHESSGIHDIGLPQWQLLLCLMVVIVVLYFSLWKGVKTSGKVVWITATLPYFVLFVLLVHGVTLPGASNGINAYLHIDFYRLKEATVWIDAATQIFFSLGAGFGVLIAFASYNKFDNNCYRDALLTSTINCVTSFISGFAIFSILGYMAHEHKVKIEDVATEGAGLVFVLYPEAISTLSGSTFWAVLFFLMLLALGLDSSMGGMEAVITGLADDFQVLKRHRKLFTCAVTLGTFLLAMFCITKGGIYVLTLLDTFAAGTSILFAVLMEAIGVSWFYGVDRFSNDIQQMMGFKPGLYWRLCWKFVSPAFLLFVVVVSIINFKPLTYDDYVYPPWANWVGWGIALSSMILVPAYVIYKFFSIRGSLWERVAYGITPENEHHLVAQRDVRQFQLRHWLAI
T1 sequence (P28223 whole entry): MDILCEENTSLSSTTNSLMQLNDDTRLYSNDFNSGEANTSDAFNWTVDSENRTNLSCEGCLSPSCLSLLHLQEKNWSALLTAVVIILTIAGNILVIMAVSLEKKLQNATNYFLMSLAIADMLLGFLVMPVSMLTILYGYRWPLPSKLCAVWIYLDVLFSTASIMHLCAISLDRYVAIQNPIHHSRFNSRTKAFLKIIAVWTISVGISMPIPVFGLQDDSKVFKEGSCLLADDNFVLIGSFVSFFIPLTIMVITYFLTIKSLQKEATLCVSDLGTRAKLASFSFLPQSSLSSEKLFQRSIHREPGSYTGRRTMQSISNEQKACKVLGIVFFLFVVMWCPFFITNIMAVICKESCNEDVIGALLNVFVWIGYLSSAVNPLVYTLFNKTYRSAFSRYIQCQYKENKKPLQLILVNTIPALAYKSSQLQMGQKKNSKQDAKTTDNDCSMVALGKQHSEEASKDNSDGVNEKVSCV

Row | SMILES | IC50 [1] [nM] | IC50 [2] [nM] | IC50 [3] [nM] | IC50 [4] [nM]
1 | OC1CCN(CC2CC3c4ccccc4Sc4ccc(F)cc4C3O2)C1 (racemic) [Compound 44] | < 10 | 9.33 | 10 | 282
2 | CC(C)(C)NC(=S)N1CCN(CC2CC3c4ccccc4Cc4ccc(F)cc4C3O2)CC1 (centres unmarked) [Compound 109] | 14.5 | 38.9 | 132 | 263
3 | O=C(O)C1CCN(C[C@H]2C[C@@H]3c4ccccc4Cc4ccc(F)cc4[C@@H]3O2)C1 (some centres unmarked) [Compound 10] | 17.4 | 13.5 | 437 | > 10000
4 | OC1CCN(C[C@@H]2C[C@@H]3c4ccccc4Sc4ccc(F)cc4[C@H]3O2)C1 (relative stereo) [Compound 43] | < 10 | 1.29 | 57.5 | 1700
5 | O=[N+]([O-])c1ccc(-c2ccc(CN3CCN(CC4CC5c6ccccc6Cc6ccc(F)cc6C5O4)CC3)o2)cc1 (centres unmarked) [Compound 63] | 27.5 | 50.1 | 74.1 | 562
6 | COc1cc2c(cc1OC)CN(C[C@H]1C[C@@H]3c4ccccc4Cc4ccc(F)cc4[C@@H]3O1)CC2 [Compound 276] | 1.02 | 1.15 | 17 | > 10000
7 | N#CCCC1CCN(CC2CC3c4ccccc4Cc4ccc(F)cc4C3O2)CC1 (centres unmarked) [Compound 170] | 1.82 | 2.63 | 1.51 | 4270
8 | COc1ccc(OCC2CCN(C[C@H]3C[C@@H]4c5ccccc5Cc5ccc(F)cc5[C@@H]4O3)C2)cc1 (some centres unmarked) [Compound 25] | 1.58 | 4.68 | 6.03 | 2190
9 | CCOC(=O)C1CCCCN1C(=O)C1CCN(CC2CC3c4ccccc4Cc4ccc(F)cc4C3O2)CC1 (mixture of isomers) [Compound 205] | < 10 | 4.47 | 12.6 | 8510
10 | COc1ccc(C)c(NC(=O)C2CCN(CC3CC4c5ccccc5Cc5ccc(F)cc5C4O3)CC2)c1 (centres unmarked) [Compound 191] | < 10 | 3.47 | 11.7 | 9120
11 | O=C(NCc1ccccc1)OCC1CCN(CC2CC3c4ccccc4Cc4ccc(F)cc4C3O2)C1 (mixture of isomers) [Compound 24] | 1.82 | 1.45 | 4.27 | 2690
12 | COc1ccc(N2CCN(CC3CC4c5ccccc5Cc5ccc(F)cc5C4O3)CC2)cc1 (centres unmarked) [Compound 116] | 9.77 | 20 | 37.2 | 7240
13 | COCC(=O)N1CCN(CC2CC3c4ccccc4Cc4ccc(F)cc4C3O2)CC1 (centres unmarked) [Compound 77] | 3.09 | 13.2 | 33.9 | 3630
14 | Fc1ccc2c(c1)C1OC(CN3CCN(C(=S)NCc4ccccc4)CC3)CC1c1ccccc1C2 (centres unmarked) [Compound 113] | 11 | 24 | 50.1 | 2400
15 | COC1CCN(C[C@H]2C[C@@H]3c4ccccc4Cc4ccc(F)cc4[C@@H]3O2)C1 (some centres unmarked) [Compound 4] | < 10 | 2.09 | 16.2 | 5890
16 | OC(COCc1ccco1)CN1CCN(CC2CC3c4ccccc4Cc4ccc(F)cc4C3O2)CC1 (mixture of isomers) [Compound 55] | 2.69 | 3.16 | 8.13 | 1820
17 | Fc1ccc2c(c1)C1OC(CN3CCC(NC(=S)NCCN4CCOCC4)CC3)CC1c1ccccc1C2 (centres unmarked) [Compound 253] | 2.09 | 10.2 | 24.5 | 1510
